Measurements as given in paper PMC9967275, “Screening the Pathogen Box to Discover and Characterize New Cruzain and TbrCatL Inhibitors” (Pathogens, 2023).
Like-named read-outs stand apart in the source and are kept apart here.

Experiments:
cruzain = cruzain (Trypanosoma cruzi, UniProt P25779); test: biochemical;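 as to Cruzain 0’ Inhibition: at 5 µM compound concentration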;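 as to Cruzain 10’ Inhibition: at 5 µM compound concentration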;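 as to Cruzain Inhibition 0’: at 5 µM compound concentration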;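 as to Cruzain Inhibition 10’: at 5 µM compound concentration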
Sequence of cruzain (P25779 123-337 limits assumed): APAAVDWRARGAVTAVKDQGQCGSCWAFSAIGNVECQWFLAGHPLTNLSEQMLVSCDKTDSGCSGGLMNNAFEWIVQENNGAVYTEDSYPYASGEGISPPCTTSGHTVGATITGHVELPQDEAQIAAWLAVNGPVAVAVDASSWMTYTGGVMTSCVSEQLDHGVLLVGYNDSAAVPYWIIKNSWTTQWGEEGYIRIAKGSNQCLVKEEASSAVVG
Outline: (§1)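 Recombinant enzymes assayed by Z-Phe-Arg-AMC cleavage at 25 °C, fluorescence 340/440 nm over 5–7 min, with 10 min or no enzyme–compound preincubation.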

TbrCatL = target: T1, TbrCatL (Trypanosoma brucei rhodesiense, UniProt Q95PM0); test: TbrCatL enzymatic inhibition assay (cleavage of fluorogenic substrate Z-FR-AMC); assay type: biochemical; details: for TbrCatL 0’ Inhibition / TbrCatL 10’ Inhibition: sheet "Screening results";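 as to TbrCatL 0’ Inhibition: at 5 µM compound concentration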;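 as to TbrCatL 10’ Inhibition: at 5 µM compound concentration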;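 as to TbrCatL Inhibition 0’: at 5 µM compound concentration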;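 as to TbrCatL Inhibition 10’: at 5 µM compound concentration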
T1 construct: Conor Caffrey (University of California San Diego)
T1 sequence (Q95PM0 entry or part of it): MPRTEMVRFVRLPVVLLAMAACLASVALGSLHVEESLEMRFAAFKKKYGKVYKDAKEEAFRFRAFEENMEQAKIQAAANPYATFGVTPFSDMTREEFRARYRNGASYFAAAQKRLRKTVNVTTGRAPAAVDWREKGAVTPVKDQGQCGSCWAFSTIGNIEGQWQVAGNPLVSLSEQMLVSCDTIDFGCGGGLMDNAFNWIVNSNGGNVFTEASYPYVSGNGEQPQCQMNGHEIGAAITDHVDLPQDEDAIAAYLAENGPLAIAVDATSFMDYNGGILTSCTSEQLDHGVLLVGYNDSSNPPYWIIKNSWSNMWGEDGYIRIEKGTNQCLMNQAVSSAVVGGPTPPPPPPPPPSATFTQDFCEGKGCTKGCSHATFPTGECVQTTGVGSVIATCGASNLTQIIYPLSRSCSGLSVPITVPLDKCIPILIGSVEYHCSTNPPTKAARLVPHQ
Outline: as §1

[1] = 0’ (pre-incubation time), sheet "Screening results"
[2] = 10’ (pre-incubation time), sheet "Screening results"
[3] = 0’ (no pre-incubation), sheet Screening results
[4] = 10’ (pre-incubation), sheet Screening results
[5] = 0’ (pre-incubation time), Pathogen Box screening results
[6] = 10’ (pre-incubation time), Pathogen Box screening results

Compound | Cruzain 0’ Inhibition (cruzain; [1]) | Cruzain 10’ Inhibition (cruzain; [2]) | TbrCatL 0’ Inhibition (TbrCatL; 0’ (pre-incubation time)) | TbrCatL 10’ Inhibition (TbrCatL; 10’ (pre-incubation time)) | Cruzain Inhibition 0’ (cruzain; [3]) | Cruzain Inhibition 10’ (cruzain; [4]) | TbrCatL Inhibition 0’ (TbrCatL; [3]) | TbrCatL Inhibition 10’ (TbrCatL; [4]) | further results
O=C(NCCN1CCCC1)c1cc(NCCN2CCOCC2)nc2ccc(Cl)cc12 [MMV634140] |  |  |  |  |  |  |  |  | inhibition at 5 µM (cruzain; read-out: Cruzain 0’ Inhibition, 0’ (pre-incubation time), sheet "Screening results"): 24%; inhibition at 5 µM (cruzain; read-out: Cruzain 10’ Inhibition, 10’ (pre-incubation time), sheet "Screening results"): 31%; inhibition at 5 µM (cruzain; read-out: Inhibition at 5 µM (Mean ± SEM %) Cruzain 0′, 5 µM, no pre-incubation, initial screening): 24 ± 1%; inhibition at 5 µM (cruzain; read-out: Inhibition at 5 µM (Mean ± SEM %) Cruzain 10′ inc, 5 µM, 10′ pre-incubation, initial screening): 31 ± 3%; inhibition at 5 µM (cruzain; read-out: Inhibition of cruzain or TbrCatL (either enzyme) in the initial screening, 5 µM, either cruzain or TbrCatL, with or without pre-incubation): ≥ 40%; inhibition at 5 µM (TbrCatL; read-out: Inhibition at 5 µM (Mean ± SEM %) TbrCatL 0′): 11 ± 1%; inhibition at 5 µM (TbrCatL; read-out: Inhibition at 5 µM (Mean ± SEM %) TbrCatL 10′ inc): 42 ± 3%; inhibition at 5 µM (TbrCatL; read-out: TbrCatL 0’ Inhibition): 11%; inhibition at 5 µM (TbrCatL; read-out: TbrCatL 10’ Inhibition): 42%
Cc1cccc(C(=O)Nc2ccnc(N(C)C3CCN(CC(C)C)CC3)c2)c1 [MMV024829] | 9% | 7% | 4% | 7% |  |  |  |  | 
Cc1ccc(S(=O)(=O)N2CCN(C(=O)c3cc(-c4ccccc4)n[nH]3)CC2)cc1 [MMV019742] |  |  |  |  | -5% | -3% | 3.5% | -2.5% | 
CNc1cc(C)nc(C2CN(C(=O)c3n[nH]c4ccccc34)CCO2)c1 (stereo not shown) [MMV689709] | -1.4% | 1.3% | 8% | 3.8% |  |  |  |  | 
CCc1ccccc1-n1c(C)cn2c3c(=O)n(C(C(=O)OC)C(C)C)c(=O)n(C)c3nc12 (stereo not shown) [MMV688550] |  |  |  |  |  |  |  |  | Cruzain Inhibition 0’ (cruzain; [5]): -4.3%; Cruzain Inhibition 10’ (cruzain; [6]): 3.2%; TbrCatL Inhibition 0’ (TbrCatL; [5]): -16%; TbrCatL Inhibition 10’ (TbrCatL; [6]): 0.4%
O=C(c1ccc(NCCO)cc1)C1C[C@H]1c1ccc(Cl)cc1 (stereo partly shown) [MMV676877] | 9% | 5.5% | 1.1% | 9% |  |  |  |  | 
Cc1ccc2c(c1C)NC(=O)C21NN=C(c2ccccc2)S1 (stereo not shown) [MMV019189] |  |  |  |  | -17% | -22% | -21% | 14% | 
O=C(N[C@H](Cc1ccccc1)C(=O)Nc1ccccc1N1CCOCC1)c1cccs1 [MMV688845] | 1% | 4.5% | -0.3% | 2.3% |  |  |  |  | 
COc1cccc(-c2nc3c(N4CCCC4)cccc3n2CC2CCCN2)n1 (stereo not shown) [MMV687703] | 14% | 11% | 26% | 16% |  |  |  |  | 
COc1ccc(N(CCc2cccc(C)n2)C(=O)C2CCCCC2)cc1 [MMV675996] | -3% | -2.2% | -13% | -10% |  |  |  |  | 
C[C@H](C(N)=O)N1CCCC[C@@H]1c1ccc(OCc2cccc(F)c2)cc1 [MMV676270] |  |  |  |  |  |  |  |  | Cruzain Inhibition 0’ (cruzain; [5]): 4.6%; Cruzain Inhibition 10’ (cruzain; [6]): 9%; TbrCatL Inhibition 0’ (TbrCatL; [5]): 3.2%; TbrCatL Inhibition 10’ (TbrCatL; [6]): -0.6%
NS(=O)(=O)c1cncc(-c2ccc3nccc(-c4cn[nH]c4)c3n2)c1 [MMV024101] | 7% | 26% | 6% | 34% |  |  |  |  | 
CC(C)=CCC/C(C)=C\CNCCNC1C2CC3CC(C2)CC1C3 (stereo not shown) [MMV687273] | -1.6% | 2.8% | -3.2% | -4.3% |  |  |  |  | 
O=C(Nc1cnc2ccccc2c1)c1cccc(-n2cnnn2)c1 [MMV084864] |  |  |  |  |  |  |  |  | Cruzain Inhibition 0’ (cruzain; [5]): 0%; Cruzain Inhibition 10’ (cruzain; [6]): 11%; TbrCatL Inhibition 0’ (TbrCatL; [5]): -11%; TbrCatL Inhibition 10’ (TbrCatL; [6]): 5%
CCc1nc2ccc(Cl)cn2c1C(=O)NCc1ccc(N2CCC(c3ccc(OC(F)(F)F)cc3)CC2)cc1 [MMV687696] | 4.7% | 1.8% | -4.5% | -3.6% |  |  |  |  | 
Cc1cc(OCC(=O)Nc2ccc(C(C)C)cc2)n(C)c(=O)c1C#N [MMV1198433] | -4.6% | -6% | -5% | -4.5% |  |  |  |  | 

Compound | Cruzain 0’ Inhibition (cruzain; [1]) | Cruzain 10’ Inhibition (cruzain; [2]) | TbrCatL 0’ Inhibition (TbrCatL; 0’ (pre-incubation time)) | TbrCatL 10’ Inhibition (TbrCatL; 10’ (pre-incubation time)) | Cruzain Inhibition 0’ (cruzain; [3]) | Cruzain Inhibition 10’ (cruzain; [4]) | TbrCatL Inhibition 0’ (TbrCatL; [3]) | TbrCatL Inhibition 10’ (TbrCatL; [4]) | further results
COc1cccc(-n2nnnc2S(=O)(=O)Cc2ccccc2)c1 [MMV676388] |  |  |  |  | 15% | 12% | 18% | 15% | 
Cc1cc2nc(NC(=O)C(C)(C)C)nc(Cl)c2n1Cc1ccc(Cl)cc1 [MMV688704] |  |  |  |  | 11% | 10% | 16% | 16% | 
C[C@H](c1ccc2c(c1)CCCC2)N(C)c1ncc2c(N)nc(N)nc2n1 [MMV690103] | -2.7% | 16% | -18% | -22% |  |  |  |  | 
Cc1cccc(-c2nc(Nc3ccncn3)c3sccc3n2)n1 [MMV688122] |  |  |  |  | -1.4% | -17% | 19% | -8% | 
C[C@H]1COc2c(N3CCN(C)CC3)c(F)cc3c(=O)c(C(=O)O)cn1c23 [MMV687798] | 4.7% | 6% | -4.6% | -1.6% |  |  |  |  | 
CO/N=C(/C(=O)OC)c1ccccc1CO/N=C(/C)c1cccc(C(F)(F)F)c1 [MMV688754] |  |  |  |  |  |  |  |  | Cruzain Inhibition 0’ (cruzain; [5]): 0.9%; Cruzain Inhibition 10’ (cruzain; [6]): 3.5%; TbrCatL Inhibition 0’ (TbrCatL; [5]): -4%; TbrCatL Inhibition 10’ (TbrCatL; [6]): -1.2%
COc1cccc(NC(=O)c2c(NC(=O)c3cccnc3)sc3c2CCC3)c1 [MMV228911] |  |  |  |  |  |  |  |  | Cruzain Inhibition 0’ (cruzain; [5]): -1.4%; Cruzain Inhibition 10’ (cruzain; [6]): 4.7%; TbrCatL Inhibition 0’ (TbrCatL; [5]): -8.5%; TbrCatL Inhibition 10’ (TbrCatL; [6]): 4.5%
CC(=O)NC[C@H]1CN(c2ccc(N3CCSCC3)c(F)c2)C(=O)O1 [MMV688756] |  |  |  |  | 14% | 11% | 10% | 7% | 
COc1ccc(S(=O)(=O)Nc2ccc(CN3CCN(C(=O)c4cccc(C#N)c4)CC3)cc2)cc1 [MMV689029] | 2.5% | 5.4% | 0.7% | 1.2% |  |  |  |  | 
CN1CCC(NCc2cccc(-c3ccc(S(=O)(=O)NCc4ccccc4)cc3)c2)CC1 [MMV022029] | -2.3% | 29% | -8% | 14% |  |  |  |  | 
CN1CCN(c2cc(-c3ccc(F)cc3)nc(-c3ccncc3)n2)CC1 [MMV688888] |  |  |  |  | 18% | 14% | 19% | 9% | 
N=C(N)c1ccc(OCCCCCOc2ccc(C(=N)N)cc2)cc1 [MMV000062] |  |  |  |  | 19% | 13% | 3% | -3% | 
CC(C)C(C(=O)Nc1ccc(S(=O)(=O)N(C)C)cc1)c1ccc(Cl)cc1 (stereo not shown) [MMV020391] |  |  |  |  | -1.5% | 2% | -3.4% | -2.5% | 
COc1ccc2nc(C)cc(OCC(=O)Nc3ccccc3OC)c2c1 [MMV687188] | 0.8% | 4.7% | -0.5% | 3% |  |  |  |  | 
Cc1nn(Cc2ccccc2)c(Cl)c1C(=O)NC1CCCCCC1 [MMV063404] |  |  |  |  | 11% | 7.6% | 7.6% | 2% | 
Cc1cc(NCCc2ccccc2)nc(NC(=N)Nc2ccc(Cl)cc2)n1 [MMV021660] | 11% | 14% | -3.6% | 7% |  |  |  |  | 
